One block for each molecule: values may come before it.
Legend:
[1] = Biodistribution of PET reporter probes in mice (microPET/CT); type: in vivo, C57/BL6 mice; conditions: for biodistribution in mice: C57/BL6 mice, FIG. 25B, no retention in normal tissues except clearance routes (GI tract, bladder)
Procedure: To identify candidate PRPs, eight nucleoside analogs (FIG. 7A) were synthesized that were amenable to ^18F labeling (the first criterion for PRPs). To identify PRP candidates with rapid clearance from normal tissues and low overall background (second criterion for PRGs), biodistribution studies in mice were performed. It was observed that natural (D) nucleosides had higher background than non-natural (L) nucleoside analogs. […] The next step was to identify a human nucleoside kinase that phosphorylates L-[^18F]FMAU and L-[^18F]FEAU, and can be converted into a new PRG that matches four criteria:
Initially, a group of nucleoside analogs amenable to fluorine-18 labeling were identified. These PET tracers, 5 of which were novel, were then screened to determine their biodistribution in C57/BL6 mice (n=3 for each PET tracer) through dynamic microPET scans. […] Rational design is utilized to introduce mutations into human nucleoside kinase thymidine kinase 2 (TK2) to improve the affinity of the kinase for the top candidate probe. The sensitivity and specificity of the novel PET reporter probe/gene pair was then determined in vitro and in vivo using a murine cancer model.
Animal studies were approved and carried out according to specific guidelines. C57/BL6 mice were injected with the indicated probe and underwent micro-PET/CT analyses at 1- and 3-h post probe injection (Inveon, Siemens Medical Solutions USA Inc.; microCAT; Imtek Inc.). For tumor imaging studies, SCID mice were injected subcutaneously on day −7 in the right and left flanks with 1×10^6 L1210-PRG-expressing cells in 50% v/v phosphate-buffered saline and 50% v/v Matrigel™ (BD Biosciences). For imaging experiments, mice were kept warm and under gas anesthesia (2% v/v isoflurane) and were injected intravenously with 200 μCi of ^18F-labeled probes. A 3-h interval was allowed between probe administration and microPET/CT scanning Static microPET images were acquired for 600 s. Image data were evaluated in three-dimensional histograms and reconstructed with a zoom factor of 2.1 using three-dimensional ordered set expectation maximization (OSEM) with 2 iterations followed by MAP (maximum a posteriori) reconstruction with 18 iterations (beta=0.1). Images were analyzed using OsiriX Imaging Software Version 3.8.

[2] = test system: TK1; assay: [3H]dT uptake inhibition assay (competition with thymidine for TK1); type: cell-based
Source text: FIG. 6 provides a graph that illustrates data regarding an assay to determine whether candidate probes compete with thymidine for TK1.
Further evaluations can be carried out to precisely assess the affinity of these candidate probes for purified recombinant TK1.

[3] = Microsomal stability (glucuronidation conditions); type: in vitro ADME; conditions: glucuronidation conditions (data not shown)
Source text: Regarding condition (d), one has obtained the microsomal stability profiles for 3 out of 4 compounds (FCU, FBU and FddUrd using the glucuronidation conditions).

[4] = test system: Baf-3 cells; assay: Test of mutant htk2 reporter genes in Baf-3 cells; type: cell-based
Source text: The sensitivity of the described mutant htk2 imaging reporter genes can be evaluated through cell culture assays and PET imaging in mouse tumor models. […] Further tests regarding the effect of expressing these reporter genes on various cells can be used to determine other potential targets. […] Several enhanced htk2 mutant reporter genes have been designed and tested. Though the examples herein describe different probes and investigate the L probes mainly in mice, other mammals and in particular, humans are also within the scope of the invention. Silico models can be used to derive additional enhanced mutants from human htk2.

[5] = molecular target: T1, TK2-N93D/L109F (Homo sapiens, UniProt O00142, L109F/N93D); assay: Kinetic analyses of recombinant TK2 (NADH-dependent enzyme coupled assay), TK2-N93D/L109F; type: biochemical
T1 construct: hexahistidine (N, cleaved yes); SUMO (N, cleaved yes); made in house; host or cells: Escherichia coli BL21 (DE3) C41, modified pET14b
T1 sequence (O00142 51-265 N93D/L109F): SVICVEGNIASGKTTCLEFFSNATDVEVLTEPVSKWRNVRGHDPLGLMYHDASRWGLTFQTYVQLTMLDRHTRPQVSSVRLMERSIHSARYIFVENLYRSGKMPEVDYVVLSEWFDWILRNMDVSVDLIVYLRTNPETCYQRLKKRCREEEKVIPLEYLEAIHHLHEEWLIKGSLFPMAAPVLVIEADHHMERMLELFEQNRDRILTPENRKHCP
Procedure: FIG. 34 provides a table that illustrates the kinetics of the phosphorylation of D and L-nucleosides by the TK2 mutants. Kinase assays were performed with recombinant protein with 200 μM of the listed substrate.

[6] = molecular target: T2, TK2-L109F (Homo sapiens, UniProt O00142, L109F); assay: Kinetic analyses of recombinant TK2 (NADH-dependent enzyme coupled assay), TK2-L109F; conditions: 37° C., 1 mM ATP
T2 sequence (O00142 51-265 L109F): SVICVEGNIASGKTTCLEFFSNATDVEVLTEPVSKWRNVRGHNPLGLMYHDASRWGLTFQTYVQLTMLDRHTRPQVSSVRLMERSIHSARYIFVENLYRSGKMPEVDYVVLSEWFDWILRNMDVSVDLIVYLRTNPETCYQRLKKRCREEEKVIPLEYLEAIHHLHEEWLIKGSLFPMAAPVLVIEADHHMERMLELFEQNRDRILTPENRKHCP
Procedure: (§1) A NADH-dependent enzyme coupled assay (see, e.g. Agarwal, K. C., et al. (1978) Methods Enzymol. 51, 483-490) was used. Using a Cary UV spectrophotometer, measurements were made in triplicate at 37° C. in a buffer containing 100 mM Tris, pH 7.5, 100 mM KCl, 5 mM MgCl2, and 1 mM ATP. For data in which kobs is given, a single nucleoside concentration of 200 μM was used. For data in which both Km and kcat are given, the nucleoside concentration was varied between 15 and 500 μM. TK2 concentration in the cuvette was 400 nM. Data were fit to the Michaelis-Menten equation using SigmaPlot. […] Therefore, all of the kinetic data using the Michaelis-Menten equation without the Hill coefficient is presented.

[7] = molecular target: T3, TK2-N93D (Homo sapiens, UniProt O00142, N93D); assay: Kinetic analyses of recombinant TK2 (NADH-dependent enzyme coupled assay), TK2-N93D; conditions: 37° C., 1 mM ATP
T3 sequence (O00142 51-265 N93D): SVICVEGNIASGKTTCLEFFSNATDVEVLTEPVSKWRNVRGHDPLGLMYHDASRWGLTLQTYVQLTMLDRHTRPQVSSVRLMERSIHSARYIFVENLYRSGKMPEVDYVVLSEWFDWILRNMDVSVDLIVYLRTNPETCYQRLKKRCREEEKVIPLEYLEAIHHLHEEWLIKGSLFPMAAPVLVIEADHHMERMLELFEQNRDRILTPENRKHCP
Procedure: as §1

[8] = test system: L1210 cells; assay: Effect of PRG overexpression on growth and dNTP pools of L1210 cells; type: cell-based, murine
Procedure: FIG. 9 provides graphs of data that illustrate how the overexpression of sr39tk affects cell growth and intracellular dNTP pools. L1210 cells were engineered to express: TK2-N93D (▪), TK2 (▴), HSV1-sr39tk (▾), and control vector eYFP (♦). Various graphs show the growth of the L1210 cells in (A) regular media and (B) regular media supplemented with 10 μM thymidine (dT). Other graphs show total cellular dNTP pools (measured by LC-MS) in cells grown in (C) regular media and (D) regular media supplemented with 10 μM dT; (*=below limit of detection).
L1210 cells transduced to overexpress the listed genes were grown in RPMI media (+/−10 μM dT) for 48 hours. The cells were then harvested and pyrimidine nucleotide pools were obtained via […].
To overcome the negative feedback limitation of TK2, a point mutation-N93D, was engineered. The work done by Piskur and colleagues on the structurally related Drosophila melanogaster deoxyribonucleoside kinase (see, e.g. Welin, M., et al. FEBS J 272:3733-3742, 2005) led one to predict that the N93D mutation would reduce the feedback inhibition of TK2 by dTTP. […] We then determined whether the enhanced resistance to feedback inhibition translates into improved TK2-N93D catalytic activity towards the L-[^18F]FMAU substrate. […]

- biodistribution in mice [1]: excellent biodistribution
Molecule: O=c1[nH]c(=O)n([C@H]2C[C@H]([18F])[C@@H](CO)O2)cc1Cl [^18F-FCU, 3′-[^18F]fluoro-2′,3′-dideoxy-5-chlorouridine]
- phosphorylation by endogenous mammalian thymidine kinases [2]: cannot be phosphorylated
- microsomal stability over time [3]: only FBU showed decrease stability over time

- overall background (biodistribution) ([1]; candidate 18F nucleoside analog probes in mice, FIG. 7B): lowest overall background
Molecule: CCc1cn([C@H]2O[C@@H](CO)[C@H](O)[C@H]2F)c(=O)[nH]c1=O [L-[^18F]FEAU]
- test of reporter system with probe [4]: successfully tested

- kobs as percentage of that of TK2 ([5]; 200 μM substrate): 62%
Molecule: Nc1ccn([C@H]2C[C@H](O)[C@@H](CO)O2)c(=O)n1 [dC, deoxycytidine]

Molecule: O=c1[nH]c(=O)n([C@H]2C[C@H]([18F])[C@@H](CO)O2)cc1Br [^18F-FBU, 3′-[^18F]fluoro-2′,3′-dideoxy-5-bromouridine]
- biodistribution in mice [1]: excellent biodistribution
- phosphorylation by endogenous mammalian thymidine kinases [2]: cannot be phosphorylated
- microsomal stability over time [3]: decrease stability over time

- change of Km by the L109F mutation [6]: decrease in the Km
- decrease of kcat compared with TK2 ([5]; 37° C., 1 mM ATP): 49%
- decrease of kcat relative to WT TK2 [7]: 77%
- decrease of kcat/Km compared with WT TK2 [7]: 60%
Molecule: Cc1cn([C@H]2C[C@H](O)[C@@H](CO)O2)c(=O)[nH]c1=O [D-dT, D-thymidine]

- change of Km by the L109F mutation [6]: decrease in the Km
- increase of kcat compared with TK2 ([5]; 37° C., 1 mM ATP): 54%
- decrease of kcat relative to WT TK2 [7]: 48%
Molecule: Cc1cn([C@@H]2C[C@@H](O)[C@H](CO)O2)c(=O)[nH]c1=O [L-dT]

Molecule: O=c1[nH]c(=O)n([C@H]2C[C@H]([18F])[C@@H](CO)O2)cc1F [^18F-FFU, 3′-[^18F]fluoro-2′,3′-dideoxy-5-fluorouridine]
- biodistribution in mice [1]: excellent biodistribution
- phosphorylation by endogenous mammalian thymidine kinases [2]: cannot be phosphorylated

Molecule: O=c1ccn([C@H]2C[C@H]([18F])[C@@H](CO)O2)c(=O)[nH]1 [^18F-FddUrd, 3′-[^18F]fluoro-2′,3′-dideoxy-uridine]
- biodistribution in mice [1]: excellent biodistribution
- phosphorylation by endogenous mammalian thymidine kinases [2]: cannot be phosphorylated
- microsomal stability over time [3]: only FBU showed decrease stability over time

B1: TK2-N93D: truncated human thymidine kinase 2 with N93D point mutation, PET reporter gene product (SEQ ID NO: 3) (protein, listed as Homo sapiens)
chain: MSVICVEGNIASGKTTCLEFFSNATDVEVLTEPVSKWRNVRGHDPLGLMYHDASRWGLTLQTYVQLTMLDRHTRPQVSSVRLMERSIHSARYIFVENLYRSGKMPEVDYVVLSEWFDWILRNMDVSVDLIVYLRTNPETCYQRLKKRCREEEKVIPLEYLEAIHHLHEEWLIKGSLFPMAAPVLVIEADHHMERMLELFEQNRDRILTPENRKHCP
- growth rate of transduced cells [8]: did not affect
- intracellular dNTP pools [8]: did not affect
